These results are taken from ChEMBL document CHEMBL1127760, “Blood-brain penetration of 5-hydroxytryptamine derivatives” (Bioorg Med Chem Lett, 1994).

Experiment [1] has as its system Mus musculus. Kind of experiment: Locomotor activity of the mice was determined at a dose of 50 ng/Kg after 30-45 min of intracerebroventricular (icv) injection; Significantly reduced. It counts as functional, organism-based.
Experiment [2] concerns Mus musculus. In words: Locomotor activity of the mice was determined at a dose of 50 ng/Kg after 45-60 min of intracerebroventricular (icv) injection; Significantly reduced. It counts as functional, organism-based.

SMILES strings stand for the structures. Calls of active or inactive are those of the source. No cut-off for these calls is given here.

For the compound `CCCCCCCCCCCCCCCCOP(=O)(OCCOC1CC(O)C(O)C(CO)O1)Oc1ccc2[nH]cc(CCNC(C)=O)c2c1` (stereo unspecified), the Activity result in the experiment on Mus musculus [1] and with Mus musculus [2] was “Significantly reduced” in each case.

As for `CC(=O)NCCc1c[nH]c2ccc(O)cc12`, the outcome with Mus musculus [1] and in the experiment with Mus musculus [2] was Active.

For `COc1ccc2[nH]cc(CCNC(C)=O)c2c1`, the result in the experiment with Mus musculus [1] and in the experiment with Mus musculus [2] was Active.
